US20180353462A1, “[…] AGENTS […] FLAVONOID DERIVATIVES TARGETING KINASES, SIRTUINS AND ONCOGENIC AGENTS FOR THE TREATMENT OF CANCERS” (priority 2015, published 2018)

How the values were obtained:
CK2a = target: T1, CK2a (Homo sapiens, UniProt P68400); experiment: Kinase competition binding assay, CK2a; conditions: Table 1 kinase panel
T1 construct: made in house
Description: (§1) Cannabis flavonoids and their analogs were subjected to kinase inhibition assay. The compounds were first screened at a single concentration of 10 μM in the primary assay. […]. To determine the kd or IC50 values, competition binding assays were established, authenticated and executed as described previously. Fabian et al., “A Small Molecule-Kinase Interaction Map For Clinical Kinase Inhibitors.”, Nat Biotechnol, 23(3):329-36, Epub (2005). See also, Karaman et al., “A Quantitative Analysis Of Kinase Inhibitor Selectivity”, Nat. Biotechnol. […] For most assays, kinases were fused to T7 phage strains (Fabian, supra) and for the other assays, kinases were produced in HEK-293 cells after which they were tagged with DNA for quantitative PCR detection. In general, full-length constructs were used for small, single domain kinases, and catalytic domain constructs for large multi-domain kinases. The binding assays utilized streptavidin-coated magnetic beads treated with biotinylated small molecule ligands for 30 minutes at room temperature which generated affinity resins for the kinase assays. The liganded beads were blocked with excess biotin and washed with blocking buffer (SeaBlock (Pierce), 1% BSA, 0.05% Tween 20, 1 mM DTT) to remove unbound ligand and to reduce non-specific phage binding. […] Test compounds were prepared as 40× stocks in 100% DMSO and diluted directly into the assay (Final DMSO concentration=2.5%). All reactions were performed in polypropylene 384-well plates in a final volume of 0.04 ml. […] The beads were then re-suspended in elution buffer (1×PBS, 0.05% Tween 20, 0.5 μM non-biotinylated affinity ligand) and incubated at room temperature with shaking for 30 minutes. The kinase concentration in the eluates was measured by quantitative PCR. An illustration of the kinase interaction process is presented below. Kd/IC50 values were determined using a standard dose response curve using the hill equation. Curves were fitted using a non-linear least square fit with the Levenberg-Marquardt algorithm.
(§2) The compound(s) were screened at 10 μM and results for primary screen binding interactions are reported as ‘% Ctrl’, where lower numbers indicate stronger hits in the matrix.

FGR = target: T2, FGR (Homo sapiens, UniProt P09769); experiment: Kinase competition binding assay, FGR; conditions: Table 1 kinase panel
T2 construct: made in house
Description: as §1, §2

KIT(L576P) = target: T3, KIT(L576P) (Homo sapiens, UniProt P10721, L576P); experiment: Kinase competition binding assay, KIT(L576P); conditions: Table 1 kinase panel
T3 construct: made in house
Description: as §1, §2

PDGFRB = target: T4, PDGFRB (Homo sapiens, UniProt P09619); experiment: Kinase competition binding assay, PDGFRB; conditions: Table 1 kinase panel
T4 construct: catalytic domain constructs for large multi-domain kinases; T7 phage fusion (most assays) or DNA tag for qPCR (HEK-293-made kinases); made in house
Description: as §1, §2

PIK3CA(1800L) = target: T5, PIK3CA(1800L) (Homo sapiens, UniProt P42336, I800L); experiment: Kinase competition binding assay, PIK3CA(1800L); conditions: Table 1 kinase panel
T5 construct: T7 phage fusion (most assays) or DNA tag for qPCR (HEK-293-made kinases); made in house
Description: as §1, §2

RIOK1 = target: T6, RIOK1 (Homo sapiens, UniProt Q9BRS2); experiment: Kinase competition binding assay, RIOK1; conditions: Table 1 kinase panel
T6 construct: T7 phage fusion (most assays) or DNA tag for qPCR (HEK-293-made kinases); made in house
T6 sequence (Q9BRS2 1-568): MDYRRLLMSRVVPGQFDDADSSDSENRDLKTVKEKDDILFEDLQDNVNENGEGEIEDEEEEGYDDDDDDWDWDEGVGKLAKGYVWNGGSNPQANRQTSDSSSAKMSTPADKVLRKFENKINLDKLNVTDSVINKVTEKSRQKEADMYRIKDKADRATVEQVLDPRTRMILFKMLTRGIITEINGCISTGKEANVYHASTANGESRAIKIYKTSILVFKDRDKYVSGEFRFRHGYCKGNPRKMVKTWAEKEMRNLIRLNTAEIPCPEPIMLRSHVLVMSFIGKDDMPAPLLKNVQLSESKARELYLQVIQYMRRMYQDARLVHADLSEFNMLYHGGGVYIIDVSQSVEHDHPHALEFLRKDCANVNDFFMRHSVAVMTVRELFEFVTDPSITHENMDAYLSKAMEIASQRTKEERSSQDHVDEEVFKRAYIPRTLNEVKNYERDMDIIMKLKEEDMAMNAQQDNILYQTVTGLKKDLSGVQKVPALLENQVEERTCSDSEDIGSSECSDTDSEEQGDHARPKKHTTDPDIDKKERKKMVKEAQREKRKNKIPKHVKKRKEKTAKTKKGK
Description: as §1, §2

SIRT-1 = target: T7, SIRT-1 (Homo sapiens, UniProt Q96EB6); experiment: Inhibition of sirtuins, SIRT-1; format: biochemical; conditions: Table 3 SIRT
T7 sequence (Q96EB6 1-747): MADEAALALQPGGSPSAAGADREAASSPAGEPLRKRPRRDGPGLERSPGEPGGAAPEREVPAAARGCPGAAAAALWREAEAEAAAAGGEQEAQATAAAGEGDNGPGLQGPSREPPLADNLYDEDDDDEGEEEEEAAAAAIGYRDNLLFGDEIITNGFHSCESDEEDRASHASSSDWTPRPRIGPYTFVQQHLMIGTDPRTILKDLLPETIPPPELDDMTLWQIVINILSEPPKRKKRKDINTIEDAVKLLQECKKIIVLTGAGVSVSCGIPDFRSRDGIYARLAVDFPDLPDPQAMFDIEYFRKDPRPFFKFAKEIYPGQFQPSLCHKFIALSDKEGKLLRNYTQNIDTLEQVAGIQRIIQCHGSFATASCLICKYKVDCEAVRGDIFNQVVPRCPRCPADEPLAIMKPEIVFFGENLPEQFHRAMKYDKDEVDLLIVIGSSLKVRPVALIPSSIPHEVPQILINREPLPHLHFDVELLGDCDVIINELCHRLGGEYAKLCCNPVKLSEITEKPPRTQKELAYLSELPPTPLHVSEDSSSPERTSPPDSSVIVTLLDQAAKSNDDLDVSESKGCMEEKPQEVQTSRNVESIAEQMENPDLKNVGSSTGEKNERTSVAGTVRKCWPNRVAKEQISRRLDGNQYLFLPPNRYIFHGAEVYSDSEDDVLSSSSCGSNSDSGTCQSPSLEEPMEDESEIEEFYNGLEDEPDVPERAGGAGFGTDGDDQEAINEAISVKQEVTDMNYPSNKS
Description: (§3) Inhibition of Sirtuins, Matrix Metalloproteinase, Bromodomains was Also Confirmed Using Standard Protocols and the Results are Present in Table 2.

SIRT-5 = target: T8, SIRT-5 (Homo sapiens, UniProt Q9NXA8); experiment: Inhibition of sirtuins, SIRT-5; format: biochemical; conditions: Table 3 SIRT
T8 sequence (Q9NXA8 37-310): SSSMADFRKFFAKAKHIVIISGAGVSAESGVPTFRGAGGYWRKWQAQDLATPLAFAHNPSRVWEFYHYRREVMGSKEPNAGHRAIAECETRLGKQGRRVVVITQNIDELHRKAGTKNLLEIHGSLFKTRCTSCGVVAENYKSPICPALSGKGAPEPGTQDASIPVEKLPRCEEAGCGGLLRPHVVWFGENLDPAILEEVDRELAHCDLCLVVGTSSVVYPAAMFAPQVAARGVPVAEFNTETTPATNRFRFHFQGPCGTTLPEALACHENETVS
Description: as §3

T1 sequence (P68400 whole entry): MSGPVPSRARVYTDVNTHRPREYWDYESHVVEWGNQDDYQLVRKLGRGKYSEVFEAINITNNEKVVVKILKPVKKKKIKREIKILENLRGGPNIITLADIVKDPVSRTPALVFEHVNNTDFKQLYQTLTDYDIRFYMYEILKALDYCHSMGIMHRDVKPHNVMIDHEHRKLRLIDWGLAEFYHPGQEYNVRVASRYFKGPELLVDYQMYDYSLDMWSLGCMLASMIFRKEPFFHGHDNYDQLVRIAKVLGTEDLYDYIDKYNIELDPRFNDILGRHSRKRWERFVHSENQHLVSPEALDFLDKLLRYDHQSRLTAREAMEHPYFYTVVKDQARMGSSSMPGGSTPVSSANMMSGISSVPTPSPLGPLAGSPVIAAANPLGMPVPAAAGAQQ
T2 sequence (P09769 whole entry): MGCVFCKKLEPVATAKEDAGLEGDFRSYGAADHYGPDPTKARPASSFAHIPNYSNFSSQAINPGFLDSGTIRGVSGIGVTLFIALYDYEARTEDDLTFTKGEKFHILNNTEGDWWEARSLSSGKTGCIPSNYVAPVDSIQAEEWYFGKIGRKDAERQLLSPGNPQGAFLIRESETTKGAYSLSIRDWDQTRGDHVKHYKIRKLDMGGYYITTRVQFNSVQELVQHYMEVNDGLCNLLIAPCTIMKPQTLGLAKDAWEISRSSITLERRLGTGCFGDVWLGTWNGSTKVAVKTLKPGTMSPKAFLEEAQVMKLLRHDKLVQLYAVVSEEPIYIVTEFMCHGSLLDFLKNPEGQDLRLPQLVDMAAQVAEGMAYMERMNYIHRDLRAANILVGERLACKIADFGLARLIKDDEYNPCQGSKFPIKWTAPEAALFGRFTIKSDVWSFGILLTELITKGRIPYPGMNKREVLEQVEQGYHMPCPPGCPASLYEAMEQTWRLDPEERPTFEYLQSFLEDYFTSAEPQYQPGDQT
T3 sequence (P10721 26-976 L576P): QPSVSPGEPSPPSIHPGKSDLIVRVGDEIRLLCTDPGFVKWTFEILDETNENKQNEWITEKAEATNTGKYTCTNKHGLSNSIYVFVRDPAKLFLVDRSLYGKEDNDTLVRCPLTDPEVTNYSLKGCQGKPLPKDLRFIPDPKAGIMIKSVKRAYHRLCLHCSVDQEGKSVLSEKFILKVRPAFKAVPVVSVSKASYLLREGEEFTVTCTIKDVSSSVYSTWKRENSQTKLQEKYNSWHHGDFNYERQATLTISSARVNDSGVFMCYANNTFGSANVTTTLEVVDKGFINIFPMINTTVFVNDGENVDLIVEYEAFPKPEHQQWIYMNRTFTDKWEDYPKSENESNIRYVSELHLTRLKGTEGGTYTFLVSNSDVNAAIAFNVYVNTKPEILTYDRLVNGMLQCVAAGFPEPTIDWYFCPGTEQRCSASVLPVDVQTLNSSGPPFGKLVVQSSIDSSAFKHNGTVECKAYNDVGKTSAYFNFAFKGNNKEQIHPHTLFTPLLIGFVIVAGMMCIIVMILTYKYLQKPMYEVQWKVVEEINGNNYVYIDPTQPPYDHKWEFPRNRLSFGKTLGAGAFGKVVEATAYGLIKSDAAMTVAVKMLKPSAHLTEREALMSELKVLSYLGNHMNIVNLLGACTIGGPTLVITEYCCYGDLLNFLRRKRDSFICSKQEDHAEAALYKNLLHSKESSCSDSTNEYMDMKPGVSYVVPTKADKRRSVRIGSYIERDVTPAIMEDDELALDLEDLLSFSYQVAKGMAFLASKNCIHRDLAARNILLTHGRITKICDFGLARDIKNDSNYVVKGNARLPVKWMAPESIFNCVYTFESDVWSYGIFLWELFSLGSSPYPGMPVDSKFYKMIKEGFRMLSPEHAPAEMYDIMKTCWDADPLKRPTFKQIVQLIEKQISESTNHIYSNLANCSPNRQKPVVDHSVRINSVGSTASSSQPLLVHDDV
T4 sequence (P09619 600-962 limits assumed): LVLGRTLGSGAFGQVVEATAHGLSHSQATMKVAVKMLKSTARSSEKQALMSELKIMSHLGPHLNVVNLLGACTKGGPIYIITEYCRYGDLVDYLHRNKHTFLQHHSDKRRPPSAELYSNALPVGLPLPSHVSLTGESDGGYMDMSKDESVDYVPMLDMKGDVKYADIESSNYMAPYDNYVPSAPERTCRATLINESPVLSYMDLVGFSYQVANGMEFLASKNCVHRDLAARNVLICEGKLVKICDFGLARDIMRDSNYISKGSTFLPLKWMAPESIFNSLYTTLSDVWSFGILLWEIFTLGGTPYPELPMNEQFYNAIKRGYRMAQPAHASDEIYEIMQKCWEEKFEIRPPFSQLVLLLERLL
T5 sequence (P42336 whole entry I800L, the tested form may be a part): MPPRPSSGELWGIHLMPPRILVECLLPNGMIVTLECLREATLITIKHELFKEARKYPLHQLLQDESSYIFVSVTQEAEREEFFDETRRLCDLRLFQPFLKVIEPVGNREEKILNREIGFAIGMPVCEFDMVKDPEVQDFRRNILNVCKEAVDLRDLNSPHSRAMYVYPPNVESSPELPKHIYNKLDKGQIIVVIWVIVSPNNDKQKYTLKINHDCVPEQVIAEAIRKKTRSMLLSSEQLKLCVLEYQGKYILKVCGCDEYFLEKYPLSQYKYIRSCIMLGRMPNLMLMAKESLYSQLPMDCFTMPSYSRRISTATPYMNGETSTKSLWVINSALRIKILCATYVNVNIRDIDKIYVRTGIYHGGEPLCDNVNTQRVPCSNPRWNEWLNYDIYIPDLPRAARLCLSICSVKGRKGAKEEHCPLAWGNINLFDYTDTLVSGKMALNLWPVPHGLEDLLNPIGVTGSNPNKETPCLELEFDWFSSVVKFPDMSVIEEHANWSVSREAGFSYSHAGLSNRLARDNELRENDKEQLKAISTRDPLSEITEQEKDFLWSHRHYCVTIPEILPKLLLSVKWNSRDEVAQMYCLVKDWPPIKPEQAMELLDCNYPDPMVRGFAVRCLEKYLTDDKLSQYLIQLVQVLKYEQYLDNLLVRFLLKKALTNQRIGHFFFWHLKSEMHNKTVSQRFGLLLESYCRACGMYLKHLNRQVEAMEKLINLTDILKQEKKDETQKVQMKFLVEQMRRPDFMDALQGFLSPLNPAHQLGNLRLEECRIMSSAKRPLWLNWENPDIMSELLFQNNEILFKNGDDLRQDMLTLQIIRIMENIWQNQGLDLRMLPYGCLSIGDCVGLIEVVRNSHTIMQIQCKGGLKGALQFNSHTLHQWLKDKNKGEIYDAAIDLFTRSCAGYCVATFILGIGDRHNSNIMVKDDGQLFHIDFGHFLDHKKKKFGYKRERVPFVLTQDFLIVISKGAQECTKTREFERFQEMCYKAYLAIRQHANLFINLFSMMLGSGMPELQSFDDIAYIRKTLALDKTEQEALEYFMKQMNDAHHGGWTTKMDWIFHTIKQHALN

`COc1cc(-c2cc(=O)c3c(O)c(C/C=C(\C)CCC=C(C)C)c(O)cc3o2)ccc1O` [FBL-03A] was tested, and the IC50 (CK2a) was 740 nM, the IC50 (FGR) was > 20000 nM and the IC50 (KIT(L576P)) was 180 nM. For the same compound, the IC50 (PDGFRB) was 330 nM, the IC50 (PIK3CA(1800L)) was > 20000 nM and the IC50 (RIOK1) was > 20000 nM. The IC50 (SIRT-1) was 19 µM and the IC50 (SIRT-5) was 523 µM.

For `COc1cc(-c2cc(=O)c3c(O)cc(O)c(CC=C(C)C)c3o2)ccc1O` [FBL-03G], the IC50 (CK2a) was 38 nM, the IC50 (FGR) was 880 nM and the IC50 (KIT(L576P)) was < 1000 nM. The IC50 (PDGFRB) was 3310 nM, the IC50 (PIK3CA(1800L)) was > 20000 nM and the IC50 (RIOK1) was > 20000 nM. It also gave an IC50 (SIRT-5) of 974 µM.

With `COc1ccc(-c2cc(=O)c3c(O)c(C/C=C(\C)CCC=C(C)C)c(O)cc3o2)cc1OC` [FBL-03D] the IC50 (CK2a) was > 30000 nM, the IC50 (FGR) was > 30000 nM and the IC50 (KIT(L576P)) was > 30000 nM. For the same compound, the IC50 (PDGFRB) was > 30000 nM, the IC50 (PIK3CA(1800L)) was > 30000 nM and the IC50 (RIOK1) was > 30000 nM.

With `COc1cc(-c2cc(=O)c3c(O)c(CC=C(C)C)c(O)cc3o2)ccc1O` [FBL-03B] the IC50 (CK2a) was 768 nM, the IC50 (FGR) was 224 nM and the IC50 (KIT(L576P)) was < 1000 nM. For the same compound, the IC50 (PDGFRB) was 1160 nM, the IC50 (RIOK1) was > 10000 nM and the IC50 (SIRT-1) was 27.4 µM. It also gave an IC50 (SIRT-5) of 104 µM.

With `COc1cc(-c2cc(=O)c3c(O)cc(O)c(C/C=C(\C)CCC=C(C)C)c3o2)ccc1O` [FBL-03C] the IC50 (CK2a) was 58 nM, the IC50 (FGR) was > 20000 nM and the IC50 (KIT(L576P)) was > 1000 nM. The IC50 (PDGFRB) was > 1000 nM, the IC50 (PIK3CA(1800L)) was 780 nM and the IC50 (RIOK1) was 340 nM. It also gave an IC50 (SIRT-1) of 39.5 µM and an IC50 (SIRT-5) of 132 µM.
